# Measurements reported in US20260028365A1 (BIOGEN MA INC., priority 2022, published 2026).
# Where two headings read alike, the source gives them in different places.
# Columns and labels:
# [1] = target: JH2 domain of human Tyk2 (Homo sapiens (Human), UniProt P29597); assay: JH2 Biochemical Assay (TR-FRET probe displacement); assay type: binding
# [2] = target: JAK1 (Homo sapiens (Human), UniProt P23458); assay: pSTAT3 Cell Assay (MSD, TF1 cells); assay type: cell-based
# Summary of the method: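 Readout is pSTAT3 in lysates, quantified on an MSD plate assay using anti-STAT3 antibodies. Before lysis, TF1 cells had been serum-starved, exposed to compound for 1 hour across ten four-fold dilutions starting at 10 μM, and given IL-6 for 15 minutes.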
# [3] = target: Tyk2 (Homo sapiens (Human), UniProt P29597); assay: pSTAT4 Cell Assay (MSD, NK92 cells); assay type: cell-based
# Tyk2, sequence (P29597 whole entry): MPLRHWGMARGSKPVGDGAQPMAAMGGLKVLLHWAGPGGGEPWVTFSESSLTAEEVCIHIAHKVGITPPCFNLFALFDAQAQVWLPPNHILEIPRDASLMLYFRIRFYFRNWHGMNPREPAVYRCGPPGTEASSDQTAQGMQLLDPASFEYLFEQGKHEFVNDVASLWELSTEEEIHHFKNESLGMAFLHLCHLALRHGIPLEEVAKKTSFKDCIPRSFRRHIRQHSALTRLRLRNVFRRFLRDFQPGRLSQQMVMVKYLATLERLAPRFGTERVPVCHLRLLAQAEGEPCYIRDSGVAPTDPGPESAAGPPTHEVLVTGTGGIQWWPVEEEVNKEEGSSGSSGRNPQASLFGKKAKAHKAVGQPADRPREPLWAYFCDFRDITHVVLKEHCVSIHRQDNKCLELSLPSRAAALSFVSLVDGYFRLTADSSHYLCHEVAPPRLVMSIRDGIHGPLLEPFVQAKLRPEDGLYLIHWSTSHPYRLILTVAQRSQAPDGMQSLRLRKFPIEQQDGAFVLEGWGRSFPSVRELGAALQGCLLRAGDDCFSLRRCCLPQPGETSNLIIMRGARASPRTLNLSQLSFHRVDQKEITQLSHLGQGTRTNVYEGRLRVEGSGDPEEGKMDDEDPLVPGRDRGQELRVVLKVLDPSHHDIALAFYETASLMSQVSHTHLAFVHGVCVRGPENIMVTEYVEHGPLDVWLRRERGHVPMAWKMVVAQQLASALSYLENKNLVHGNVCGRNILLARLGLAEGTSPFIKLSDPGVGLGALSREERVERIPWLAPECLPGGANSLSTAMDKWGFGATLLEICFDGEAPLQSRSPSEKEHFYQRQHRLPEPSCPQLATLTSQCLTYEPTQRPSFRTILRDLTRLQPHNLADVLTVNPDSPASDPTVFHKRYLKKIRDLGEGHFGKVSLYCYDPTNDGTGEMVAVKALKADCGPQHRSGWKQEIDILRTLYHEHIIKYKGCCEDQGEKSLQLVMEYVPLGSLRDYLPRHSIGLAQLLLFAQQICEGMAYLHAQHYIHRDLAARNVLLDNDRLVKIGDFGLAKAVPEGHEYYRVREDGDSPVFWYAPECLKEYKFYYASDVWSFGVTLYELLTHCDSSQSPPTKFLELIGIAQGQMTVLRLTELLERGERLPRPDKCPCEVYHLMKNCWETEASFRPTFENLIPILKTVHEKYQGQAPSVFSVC
# [4] = target: JAK2 (Homo sapiens (Human), UniProt O60674); assay: pSTAT5 Cell Assay (MSD, TF1 cells); assay type: cell-based
# JAK2, sequence (O60674 whole entry): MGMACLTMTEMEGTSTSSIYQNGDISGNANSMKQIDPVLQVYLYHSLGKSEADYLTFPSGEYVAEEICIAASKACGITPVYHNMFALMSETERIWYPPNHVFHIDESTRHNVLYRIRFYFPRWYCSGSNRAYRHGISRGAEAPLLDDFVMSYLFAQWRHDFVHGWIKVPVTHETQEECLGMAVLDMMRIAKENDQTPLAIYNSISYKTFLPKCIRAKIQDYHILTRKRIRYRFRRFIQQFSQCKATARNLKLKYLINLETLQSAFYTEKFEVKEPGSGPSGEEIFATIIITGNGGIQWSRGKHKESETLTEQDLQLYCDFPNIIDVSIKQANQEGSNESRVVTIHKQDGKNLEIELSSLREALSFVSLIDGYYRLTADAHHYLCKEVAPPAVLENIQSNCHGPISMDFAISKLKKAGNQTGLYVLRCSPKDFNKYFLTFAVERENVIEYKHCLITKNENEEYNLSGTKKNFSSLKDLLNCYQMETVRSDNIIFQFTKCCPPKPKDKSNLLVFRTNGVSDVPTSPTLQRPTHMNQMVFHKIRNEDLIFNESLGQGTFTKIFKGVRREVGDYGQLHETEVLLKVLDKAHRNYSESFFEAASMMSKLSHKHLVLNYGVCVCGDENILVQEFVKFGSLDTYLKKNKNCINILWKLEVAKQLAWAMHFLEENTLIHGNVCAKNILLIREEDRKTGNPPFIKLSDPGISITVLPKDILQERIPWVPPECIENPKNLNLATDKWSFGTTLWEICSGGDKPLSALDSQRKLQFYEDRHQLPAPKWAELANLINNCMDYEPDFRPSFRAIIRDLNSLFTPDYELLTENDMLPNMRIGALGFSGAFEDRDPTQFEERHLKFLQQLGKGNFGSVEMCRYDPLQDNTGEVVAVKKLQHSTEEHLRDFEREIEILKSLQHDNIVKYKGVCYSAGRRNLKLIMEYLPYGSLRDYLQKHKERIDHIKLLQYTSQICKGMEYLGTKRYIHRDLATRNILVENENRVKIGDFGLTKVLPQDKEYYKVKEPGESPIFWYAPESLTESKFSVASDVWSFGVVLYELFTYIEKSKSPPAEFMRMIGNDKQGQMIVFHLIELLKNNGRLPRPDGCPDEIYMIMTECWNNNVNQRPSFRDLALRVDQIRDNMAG
# Description: Compounds of the disclosure were assessed for their ability to inhibit the JAK2 kinase activity on STAT5 utilizing an MSD-platform plate-based assay format. TF1 cells natively expressing STAT5 and JAK2 were serum-starved to reduce background phosphorylation levels, then cells were treated with compounds of disclosure for 1 hour with a 10-point four-fold dilution series starting at 10 μM. Cells were then stimulated with 30 ng/mL IL-3 for 15 minutes. Cells were then lysed and pSTAT5 levels were quantitated using an MSD plate-based assay with anti-STAT5 antibodies. The data were normalized and the percent activity versus log concentration of compound was fitted with a 4-parameter logistic model to generate a curve and an IC50 value.
# [5] = TR-FRET probe displacement, JH2 domain of human Tyk2
# [6] = TR-FRET probe displacement, JH2 domain
# [7] = JH2 domain of human Tyk2, TR-FRET probe displacement
# JH2 domain of human Tyk2, sequence (P29597 575-876): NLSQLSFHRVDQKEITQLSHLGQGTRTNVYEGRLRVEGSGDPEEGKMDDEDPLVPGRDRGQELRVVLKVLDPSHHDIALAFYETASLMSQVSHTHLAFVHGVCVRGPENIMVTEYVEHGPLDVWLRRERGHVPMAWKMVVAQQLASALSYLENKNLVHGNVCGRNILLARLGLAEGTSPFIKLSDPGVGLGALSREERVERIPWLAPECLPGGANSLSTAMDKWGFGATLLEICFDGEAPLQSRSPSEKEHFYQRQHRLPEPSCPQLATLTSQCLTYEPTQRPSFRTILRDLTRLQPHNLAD
# JAK1, sequence (P23458 whole entry): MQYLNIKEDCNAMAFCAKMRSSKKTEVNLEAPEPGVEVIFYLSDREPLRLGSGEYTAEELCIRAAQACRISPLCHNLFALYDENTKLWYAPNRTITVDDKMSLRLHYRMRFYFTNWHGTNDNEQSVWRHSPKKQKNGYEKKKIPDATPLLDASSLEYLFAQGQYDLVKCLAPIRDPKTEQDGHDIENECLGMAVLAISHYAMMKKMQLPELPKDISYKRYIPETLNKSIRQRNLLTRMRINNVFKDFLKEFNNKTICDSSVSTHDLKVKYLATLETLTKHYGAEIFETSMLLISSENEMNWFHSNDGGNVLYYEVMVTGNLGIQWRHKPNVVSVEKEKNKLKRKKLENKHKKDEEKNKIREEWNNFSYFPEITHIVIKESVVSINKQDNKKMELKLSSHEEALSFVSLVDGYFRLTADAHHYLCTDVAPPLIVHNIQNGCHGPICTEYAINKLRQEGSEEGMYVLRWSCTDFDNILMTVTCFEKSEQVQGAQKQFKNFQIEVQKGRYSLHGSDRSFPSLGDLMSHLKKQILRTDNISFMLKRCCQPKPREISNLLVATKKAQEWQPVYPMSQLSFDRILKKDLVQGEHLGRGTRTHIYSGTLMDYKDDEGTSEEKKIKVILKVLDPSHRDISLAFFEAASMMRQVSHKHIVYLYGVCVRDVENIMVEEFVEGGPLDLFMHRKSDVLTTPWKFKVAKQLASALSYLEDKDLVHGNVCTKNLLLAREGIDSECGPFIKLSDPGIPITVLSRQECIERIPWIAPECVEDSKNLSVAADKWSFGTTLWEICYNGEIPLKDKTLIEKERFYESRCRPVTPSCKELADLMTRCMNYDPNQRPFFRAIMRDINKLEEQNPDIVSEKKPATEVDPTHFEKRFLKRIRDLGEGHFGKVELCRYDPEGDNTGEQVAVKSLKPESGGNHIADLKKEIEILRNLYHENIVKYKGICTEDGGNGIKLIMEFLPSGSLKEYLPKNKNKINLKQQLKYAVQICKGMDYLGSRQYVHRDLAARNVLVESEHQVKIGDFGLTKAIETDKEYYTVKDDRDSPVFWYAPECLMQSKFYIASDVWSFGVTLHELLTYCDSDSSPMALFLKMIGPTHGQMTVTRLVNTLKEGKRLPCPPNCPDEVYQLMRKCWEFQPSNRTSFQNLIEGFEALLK
SMILES,"IC50 [1, 5] [nM]","IC50 ([2]; IL-6 stimulation, MSD) [nM]",IC50 ([3]; MSD) [nM],"IC50 ([4]; IL-3 stimulation, MSD) [nM]","IC50 [1, 6] [nM]",IC50 ([2]; IL-6 stimulated) [nM],IC50 [3] [nM],IC50 ([4]; IL-3 stimulated) [nM],"IC50 [1, 7] [nM]","IC50 ([2]; IL-6 stimulated, MSD) [nM]","IC50 ([4]; IL-3 stimulated, MSD) [nM]"
"CO[C@H]1C[C@@H](Oc2cnc(NC(C)=O)cc2Nc2cc(OC3CC3)nc(C(C)(F)F)n2)C1 [Example 351, N-(4-((6-cyclopropoxy-2-(1,1-difluoroethyl)pyrimidin-4-yl)amino)-5-((1s,3s)-3-methoxycyclobutoxy)pyridin-2-yl)acetamide]",≤ 10,≥ 1000,≤ 10,≥ 1000,–,–,–,–,–,–,–
"CC(=O)Nc1cc(Nc2cc(C)nc(C(C)(C)F)n2)c(-c2cc(C)ncn2)cn1 [Example 200, N-(4-((2-(2-fluoropropan-2-yl)-6-methylpyrimidin-4-yl)amino)-5-(6-methylpyrimidin-4-yl)pyridin-2-yl)acetamide]",≤ 10,≥ 1000,10 to 100,≥ 1000,–,–,–,–,–,–,–
"COCc1cc(-c2cnc(NC(C)=O)cc2Nc2cc(C)nc(C(C)(F)F)n2)nn1C [Example 757, N-(4-((2-(1,1-difluoroethyl)-6-methylpyrimidin-4-yl)amino)-5-(5-(methoxymethyl)-1-methyl-1H-pyrazol-3-yl)pyridin-2-yl)acetamide]",–,–,–,–,≤ 10,100 to 1000,≤ 10,≥ 1000,–,–,–
"CCc1cc(Nc2cc(NC(C)=O)ncc2-c2ccncn2)nc(C(C)(F)F)n1 [Example 799, N-(4-((2-(1,1-difluoroethyl)-6-ethylpyrimidin-4-yl)amino)-5-(pyrimidin-4-yl)pyridin-2-yl)acetamide]",–,–,–,–,≤ 10,≥ 1000,≤ 10,≥ 1000,–,–,–
"CC(=O)Nc1cc(Nc2cc(C)nc(C(C)(F)F)n2)c(OCC2COC(C)(C)CO2)cn1 (centres unmarked) [Example 430, N-(4-((2-(1,1-difluoroethyl)-6-methylpyrimidin-4-yl)amino)-5-((5,5-dimethyl-1,4-dioxan-2-yl)methoxy)pyridin-2-yl)acetamide]",–,–,10 to 100,–,–,–,–,–,≤ 10,≥ 1000,≥ 1000
"COCCOc1cnc(NC(C)=O)cc1Nc1cc(OC2CC2)nc(C(C)(C)F)n1 [Example 446, N-(4-((6-cyclopropoxy-2-(2-fluoropropan-2-yl)pyrimidin-4-yl)amino)-5-(2-methoxyethoxy)pyridin-2-yl)acetamide]",–,–,≤ 10,–,–,–,–,–,≤ 10,≥ 1000,≥ 1000
"COCc1cnc(-c2cnc(NC(C)=O)cc2Nc2cc(C)nc(C(C)(F)F)n2)cn1 [Example 834, N-(4-((2-(1,1-difluoroethyl)-6-methylpyrimidin-4-yl)amino)-5-(5-(methoxymethyl)pyrazin-2-yl)pyridin-2-yl)acetamide]",–,–,–,–,≤ 10,≥ 1000,≤ 10,≥ 1000,–,–,–
"CC(=O)Nc1cc(Nc2ccnc(C(C)(C)F)n2)c(-c2ccnc(C)n2)cn1 [Example 175, N-(4-((2-(2-fluoropropan-2-yl)pyrimidin-4-yl)amino)-5-(2-methylpyrimidin-4-yl)pyridin-2-yl)acetamide]",≤ 10,≥ 1000,≤ 10,≥ 1000,–,–,–,–,–,–,–
"CC(=O)Nc1cc(Nc2ccnc(C(C)(F)F)n2)c(-c2cn(C)c(C#N)n2)cn1 [Example 707, N-(5-(2-cyanO1-methyl-1H-imidazol-4-yl)-4-((2-(1,1-difluoroethyl)pyrimidin-4-yl)amino)pyridin-2-yl)acetamide]",–,–,≤ 10,–,–,–,–,–,≤ 10,≥ 1000,≥ 1000
"[2H]C([2H])([2H])n1cc(-c2cc(Nc3cc(NC(C)=O)ncc3OCC)nc(C(C)(F)F)n2)cn1 [Example 314, N-(4-((2-(1,1-difluoroethyl)-6-(1-(methyl-d3)-1H-pyrazol-4-yl)pyrimidin-4-yl)amino)-5-ethoxypyridin-2-yl)acetamide]",≤ 10,≥ 1000,≤ 10,≥ 1000,–,–,–,–,–,–,–
"CCc1cc(Nc2cc(NC(C)=O)ncc2-c2ncc(C3COCCO3)cn2)nc(C(C)(F)F)n1 (centres unmarked) [Example 840, N-(5-(5-(1,4-dioxan-2-yl)pyrimidin-2-yl)-4-((2-(1,1-difluoroethyl)-6-ethylpyrimidin-4-yl)amino)pyridin-2-yl)acetamide]",–,–,–,–,≤ 10,≥ 1000,≤ 10,≥ 1000,–,–,–
"CC(=O)Nc1cc(Nc2ccnc(C(C)(F)F)n2)c(-c2cnc(C(C)(C)O)cn2)cn1 [Example 853, N-(4-((2-(1,1-difluoroethyl)pyrimidin-4-yl)amino)-5-(5-(2-hydroxypropan-2-yl)pyrazin-2-yl)pyridin-2-yl)acetamide]",–,–,–,–,≤ 10,≥ 1000,10 to 100,≥ 1000,–,–,–
"CCOc1cnc(NC(C)=O)cc1Nc1cccc(C(C)(F)F)n1 [Example 1, N-(4-((6-(1,1-difluoroethyl)pyridin-2-yl)amino)-5-ethoxypyridin-2-yl)acetamide]",≤ 10,≥ 1000,≤ 10,≥ 1000,–,–,–,–,–,–,–
"[2H]C([2H])(C)Oc1cnc(NC(C)=O)cc1Nc1cc(C(C)C)nc(C(C)(F)F)n1 [Example 364, N-(4-((2-(1,1-difluoroethyl)-6-isopropylpyrimidin-4-yl)amino)-5-(ethoxy-1,1-d2)pyridin-2-yl)acetamide]",≤ 10,≥ 1000,10 to 100,≥ 1000,–,–,–,–,–,–,–
"CC(=O)Nc1cc(Nc2cc(C)nc(C(C)(F)F)n2)c(OC[C@H]2C[C@H]2F)cn1 (racemic) [Example 425, Cis-rac-N-(4-((2-(1,1-difluoroethyl)-6-methylpyrimidin-4-yl)amino)-5-((2-fluorocyclopropyl)methoxy)pyridin-2-yl)acetamide]",–,–,≤ 10,–,–,–,–,–,≤ 10,≥ 1000,≥ 1000
"CC(=O)Nc1cc(Nc2cc(C)nc(C(C)(F)F)n2)c(-c2cnccn2)cn1 [Example 620, N-(4-((2-(1,1-difluoroethyl)-6-methylpyrimidin-4-yl)amino)-5-(pyrazin-2-yl)pyridin-2-yl)acetamide]",–,–,10 to 100,–,–,–,–,–,≤ 10,≥ 1000,≥ 1000
"CCOc1cnc(NC(C)=O)cc1Nc1cc(C2CC2)nc(C(C)(F)F)n1 [Example 13, N-(4-((6-cyclopropyl-2-(1,1-difluoroethyl)pyrimidin-4-yl)amino)-5-ethoxypyridin-2-yl)acetamide]",≤ 10,≥ 1000,10 to 100,≥ 1000,–,–,–,–,–,–,–
"CCOc1cnc(NC(C)=O)cc1Nc1cc(CC)nc(C(C)(F)F)n1 [Example 12, N-(4-((2-(1,1-difluoroethyl)-6-ethylpyrimidin-4-yl)amino)-5-ethoxypyridin-2-yl)acetamide]",≤ 10,≥ 1000,10 to 100,≥ 1000,–,–,–,–,–,–,–
"CC(=O)Nc1cc(Nc2ccnc(C(C)(F)F)n2)ccn1 [Example 724, N-(4-((2-(1,1-difluoroethyl)pyrimidin-4-yl)amino)pyridin-2-yl)acetamide]",–,–,≥ 1000,–,–,–,–,–,10 to 100,≥ 1000,≥ 1000
"COCc1nccc(-c2cnc(NC(C)=O)cc2Nc2cc(C)nc(C(C)(F)F)n2)n1 [Example 661, N-(4-((2-(1,1-difluoroethyl)-6-methylpyrimidin-4-yl)amino)-5-(2-(methoxymethyl)pyrimidin-4-yl)pyridin-2-yl)acetamide]",–,–,≤ 10,–,–,–,–,–,≤ 10,≥ 1000,≥ 1000
